Laboratory results published in EPA's ToxRefDB 2.

Experiments:
rat [1] = details: Combined chronic toxicity/carcinogenicity, fischer, Oral, Feed, dose end: 103 week, group: systemic
mouse [2] = details: Subchronic oral toxicity in rodents, b6c3f1, Feed, dose end: 7 week, group: systemic, systemic / in life observation / body weight / body weight
rat [3] = details: Subchronic oral toxicity in rodents, fischer, Feed, dose end: 7 week, group: systemic
mouse [4] = details: Carcinogenicity; b6c3f1; Oral; Feed; dose end: 101 week; group: systemic; systemic / in life observation / body weight / body weight + systemic / pathology microscopic / liver / hyperplasia + systemic / pathology …
mouse [5] = details: Carcinogenicity; b6c3f1; Oral; Feed; dose end: 78 week; group: systemic; systemic / in life observation / body weight / body weight
rat [6] = details: Carcinogenicity; fischer; Oral; Feed; dose end: 78 week; group: systemic; systemic / in life observation / body weight / body weight
mouse [7] = details: Prenatal developmental toxicity study; cd1; Oral; Gavage/Intubation; dose end: 14 GD; group: maternal; systemic / in life observation / body weight / body weight gain + systemic / in life observation / mortality / mortality
mouse [8] = details: Prenatal developmental toxicity study, cd1, Oral, Gavage/Intubation, dose end: 15 GD
mouse [9] = details: Multigenerational reproductive toxicity study, cd1, Oral, Feed, dose end: 2 generation
dog [10] = details: Chronic toxicity; beagle; Oral; [Not Specified]; dose end: 12 month; group: systemic; systemic / in life observation / body weight / body weight + systemic / in life observation / body weight / body weight gain + systemic / …
rat [11] = details: Carcinogenicity; wistar; Oral; [Not Specified]; dose end: 24 month; group: systemic; systemic / in life observation / mortality / mortality
rat [12] = details: Chronic toxicity, wistar, Oral, Feed, dose end: 108 week, group: systemic
dog [13] = details: Subchronic oral toxicity in nonrodent, beagle, Feed, dose end: 90 day, group: systemic, systemic / pathology microscopic / kidney / vacuolization
mouse [14] = details: Carcinogenicity, b6c3f1, Oral, Feed, dose end: 24 month, group: systemic
rat [15] = details: Prenatal developmental toxicity study; sprague dawley; Oral; Gavage/Intubation; dose end: 17 GD; group: maternal; systemic / in life observation / body weight / body weight gain
mouse [16] = details: Subchronic oral toxicity in rodents, b6c3f1, Gavage/Intubation, dose end: 13 week, group: systemic, systemic / in life observation / mortality / mortality
mouse [17] = details: Carcinogenicity; b6c3f1; Oral; Gavage/Intubation; dose end: 103 week; group: systemic; systemic / pathology microscopic / stomach / hyperkeratosis + systemic / pathology microscopic / stomach / hyperplasia + systemic / …
rat [18] = details: Carcinogenicity; fischer; Oral; Gavage/Intubation; dose end: 103 week; group: systemic; systemic / pathology microscopic / stomach / hyperkeratosis + systemic / pathology microscopic / stomach / hyperplasia + systemic / …
rat [19] = details: Multigenerational reproductive toxicity study, wistar, Oral, Feed, dose end: 2 generation
mouse [20] = details: Carcinogenicity; b6c3f1; Oral; Feed; dose end: 104 week; group: systemic; systemic / in life observation / body weight / body weight + systemic / in life observation / body weight / body weight gain + systemic / in…
dog [21] = details: Chronic toxicity; beagle; Oral; Feed; dose end: 52 week; group: systemic; systemic / clinical chemistry / aminopyrine-n-demethylase / aminopyrine-n-demethylase + systemic / in life observation / body weight / body …
rabbit [22] = details: Prenatal developmental toxicity study, himalayan, Oral, Gavage/Intubation, dose end: 28 GD
rat [23] = details: Subchronic oral toxicity in rodents, wistar, Feed, dose end: 14 week, group: systemic
rat [24] = details: Chronic toxicity; sprague dawley; Oral; Feed; dose end: 104 week; group: systemic; systemic / pathology microscopic / mammary gland / mixed tumor nos + systemic / in life observation / body weight / body weight gain + …
rabbit [25] = details: Prenatal developmental toxicity study, new zealand white, Oral, Gavage/Intubation, dose end: 20 GD
[26] = systemic / in life observation / body weight / body weight
[27] = systemic / in life observation / body weight / body weight + systemic / pathology microscopic / lung / mixed tumor nos + systemic / …
[28] = group: developmental, developmental / developmental malformation / bone / exencephaly + developmental / developmental malformation / trunk / omphalocele + …
[29] = group: maternal, reproductive / reproductive performance / resorptions / resorptions + systemic / in life observation / body weight / dam weight
[30] = group: maternal, reproductive / reproductive performance / resorptions / resorptions + systemic / in life observation / body weight / dam weight + …
[31] = group: offspring, systemic / in life observation / body weight / offspring (pup) weight + developmental / offspring survival late / lactation index / …
[32] = group: parental, systemic / in life observation / body weight / body weight + systemic / in life observation / body weight / body weight gain + systemic / in…
[33] = group: reproductive, reproductive / reproductive performance / fertility / fertility
[34] = group: reproductive, reproductive / reproductive performance / fertility / fertility + reproductive / offspring survival early / litter size / litter size
[35] = systemic / in life observation / body weight / body weight + systemic / clinical chemistry / calcium / calcium + systemic / clinical …
[36] = systemic / in life observation / body weight / body weight + systemic / in life observation / body weight / body weight gain + systemic / …
[37] = group: offspring, systemic / in life observation / body weight / offspring (pup) weight + systemic / pathology gross / liver / irregular surface + systemic / …
[38] = group: developmental, developmental / developmental malformation / bone / incomplete ossification + systemic / in life observation / body weight / fetal weight
[39] = group: developmental, developmental / developmental malformation / bone / incomplete ossification + systemic / in life observation / body weight / fetal weight + …
[40] = group: maternal, systemic / in life observation / clinical signs / alopecia + systemic / in life observation / clinical signs / cold ears + systemic / in …
[41] = systemic / organ weight / spleen / absolute + systemic / organ weight / spleen / relative to body weight + systemic / clinical chemistry / …
[42] = group: developmental, systemic / in life observation / body weight / fetal weight
[43] = group: maternal, reproductive / reproductive performance / aborted / aborted + systemic / in life observation / body weight / body weight gain

Cc1ccc(N)cc1N [2,4-Diaminotoluene]
LOAEL (rat [1]; [26]): 3.95 mg/kg/day
NOAEL (rat [1]; [26]): < 3.95 mg/kg/day
LEL (rat [1]; [27]): 3.95 mg/kg/day
NEL (rat [1]; [27]): < 3.95 mg/kg/day
LEL (mouse [2]): 30 mg/kg/day
LOAEL (mouse [2]): 45 mg/kg/day
NEL (mouse [2]): 15 mg/kg/day
NOAEL (mouse [2]): 30 mg/kg/day
LEL (rat [3]; [26]): 12.5 mg/kg/day
LOAEL (rat [3]; [26]): 25 mg/kg/day
NEL (rat [3]; [26]): < 12.5 mg/kg/day
NOAEL (rat [3]; systemic / in life observation / body weight / body weight + systemic / in life observation / mortality / mortality + systemic / pathology …): 12.5 mg/kg/day
LEL (mouse [4]): 15 mg/kg/day
LOAEL (mouse [4]): 15 mg/kg/day
NEL (mouse [4]): < 15 mg/kg/day
NOAEL (mouse [4]): < 15 mg/kg/day

Cc1ccc([N+](=O)[O-])cc1N [2-Methyl-5-nitroaniline]
LEL (mouse [5]): 180 mg/kg/day
LOAEL (mouse [5]): 180 mg/kg/day
NEL (mouse [5]): < 180 mg/kg/day
NOAEL (mouse [5]): < 180 mg/kg/day
LEL (rat [6]): 2.5 mg/kg/day
LOAEL (rat [6]): 2.5 mg/kg/day
NEL (rat [6]): < 2.5 mg/kg/day
NOAEL (rat [6]): < 2.5 mg/kg/day

O=[N+]([O-])c1ccc(O)cc1 [4-Nitrophenol]
LEL (mouse [7]): 400 mg/kg/day
LOAEL (mouse [7]): > 400 mg/kg/day
NEL (mouse [7]): < 400 mg/kg/day
NOAEL (mouse [7]): ≥ 400 mg/kg/day

O=[As](O)(O)O [Arsenic acid]
LEL (mouse [8]; [28]): 64 mg/kg/day
LOAEL (mouse [8]; [28]): 64 mg/kg/day
NEL (mouse [8]; [28]): 32 mg/kg/day
NOAEL (mouse [8]; [28]): 32 mg/kg/day
LEL (mouse [8]; [29]): 32 mg/kg/day
LOAEL (mouse [8]; [29]): 32 mg/kg/day
NEL (mouse [8]; [30]): 10 mg/kg/day
NOAEL (mouse [8]; [30]): 10 mg/kg/day
LOAEL (mouse [9]; group: offspring, systemic / in life observation / body weight / offspring (pup) weight): 25 mg/kg/day
LEL (mouse [9]; [31]): 25 mg/kg/day
NEL (mouse [9]; [31]): 5 mg/kg/day
NOAEL (mouse [9]; [31]): 5 mg/kg/day
LEL (mouse [9]; [32]): 5 mg/kg/day
LOAEL (mouse [9]; [32]): 5 mg/kg/day
NEL (mouse [9]; [32]): 1 mg/kg/day
NOAEL (mouse [9]; [32]): 1 mg/kg/day
NEL (mouse [9]; [33]): 5 mg/kg/day
NOAEL (mouse [9]; [33]): 5 mg/kg/day
LEL (mouse [9]; [34]): 25 mg/kg/day
LOAEL (mouse [9]; [34]): 25 mg/kg/day

Nc1cnn(-c2ccccc2)c(=O)c1Cl [Chloridazon]
LEL (dog [10]): 186 mg/kg/day
LOAEL (dog [10]): 186 mg/kg/day
NEL (dog [10]): < 186 mg/kg/day
NOAEL (dog [10]): < 186 mg/kg/day
LEL (rat [11]): 150 mg/kg/day
LOAEL (rat [11]): > 200 mg/kg/day
NEL (rat [11]): < 150 mg/kg/day
NOAEL (rat [11]): ≥ 200 mg/kg/day
LOAEL (rat [12]; [26]): 60 mg/kg/day
LEL (rat [12]; systemic / in life observation / body weight / body weight + systemic / clinical chemistry / calcium / calcium): 60 mg/kg/day
NEL (rat [12]; [35]): 18 mg/kg/day
NOAEL (rat [12]; [35]): 18 mg/kg/day
LEL (dog [13]): 133 mg/kg/day
LOAEL (dog [13]): 133 mg/kg/day
NEL (dog [13]): < 133 mg/kg/day
NOAEL (dog [13]): < 133 mg/kg/day
LOAEL (mouse [14]; systemic / in life observation / body weight / body weight + systemic / in life observation / body weight / body weight gain): 762 mg/kg/day
NEL (mouse [14]; [36]): 28 mg/kg/day
NOAEL (mouse [14]; [36]): 146 mg/kg/day
LEL (mouse [14]; systemic / pathology microscopic / lung / adenoma): 146 mg/kg/day

CCCCc1ncc(/C=C(\Cc2cccs2)C(=O)O)n1Cc1ccc(C(=O)O)cc1 [Eprosartan]
LEL (rat [15]): 1000 mg/kg/day
LOAEL (rat [15]): 1000 mg/kg/day
NEL (rat [15]): 100 mg/kg/day
NOAEL (rat [15]): 100 mg/kg/day

C=CC(=O)OCC [Ethyl acrylate]
LEL (mouse [16]): 25 mg/kg/day
LOAEL (mouse [16]): > 25 mg/kg/day
NEL (mouse [16]): 12 mg/kg/day
NOAEL (mouse [16]): ≥ 25 mg/kg/day
LEL (mouse [17]): 100 mg/kg/day
LOAEL (mouse [17]): 100 mg/kg/day
NEL (mouse [17]): < 100 mg/kg/day
NOAEL (mouse [17]): < 100 mg/kg/day
LEL (rat [18]): 100 mg/kg/day
LOAEL (rat [18]): 100 mg/kg/day
NEL (rat [18]): < 100 mg/kg/day
NOAEL (rat [18]): < 100 mg/kg/day

COc1nn(C(=O)[N-]S(=O)(=O)c2ccccc2OC(F)(F)F)c(=O)n1C.[Na+] [Flucarbazone-sodium]
LEL (rat [19]; [37]): 1060 mg/kg/day
LOAEL (rat [19]; [37]): 1060 mg/kg/day
NEL (rat [19]; [37]): 346 mg/kg/day
NOAEL (rat [19]; [37]): 346 mg/kg/day
LOAEL (rat [19]; group: parental, systemic / organ weight / uterus / absolute): 991 mg/kg/day
NOAEL (rat [19]; group: parental, systemic / organ weight / uterus / absolute + systemic / in life observation / body weight / body weight + systemic / in life observation / …): 340 mg/kg/day
LEL (rat [19]; group: parental, systemic / pathology gross / intestine large / dilatation): 453 mg/kg/day
NEL (rat [19]; group: parental, systemic / pathology gross / intestine large / dilatation + systemic / in life observation / clinical signs / defecation + systemic / in …): 5.5 mg/kg/day
LEL (mouse [20]): 2070 mg/kg/day
LOAEL (mouse [20]): 2070 mg/kg/day
NEL (mouse [20]): 275 mg/kg/day
NOAEL (mouse [20]): 275 mg/kg/day
LEL (dog [21]): 183 mg/kg/day
LOAEL (dog [21]): 183 mg/kg/day
NEL (dog [21]): 35.9 mg/kg/day
NOAEL (dog [21]): 35.9 mg/kg/day
LEL (rabbit [22]; [38]): 500 mg/kg/day
LOAEL (rabbit [22]; [38]): 500 mg/kg/day
NEL (rabbit [22]; [39]): 300 mg/kg/day
NOAEL (rabbit [22]; [39]): 300 mg/kg/day
LEL (rabbit [22]; [40]): 300 mg/kg/day
LOAEL (rabbit [22]; [40]): 300 mg/kg/day
NEL (rabbit [22]; [40]): 100 mg/kg/day
NOAEL (rabbit [22]; [40]): 100 mg/kg/day
LEL (rat [23]; systemic / organ weight / spleen / absolute + systemic / organ weight / spleen / relative to body weight): 73.5 mg/kg/day
NEL (rat [23]; [41]): 17.6 mg/kg/day
NOAEL (rat [23]; [41]): 73.5 mg/kg/day
LOAEL (rat [23]; systemic / organ weight / spleen / absolute + systemic / organ weight / spleen / relative to body weight + systemic / pathology microscopic…): 287 mg/kg/day

C#C[C@]1(OC(C)=O)CC[C@H]2[C@@H]3CCC4=CC(=O)CC[C@@H]4[C@H]3CC[C@@]21C [Norethindrone acetate]
LEL (rat [24]): 0.289 mg/kg/day
LOAEL (rat [24]): > 3.3 mg/kg/day
NEL (rat [24]): < 0.289 mg/kg/day
NOAEL (rat [24]): ≥ 3.3 mg/kg/day

O=S(=O)(O)C(F)(F)C(F)(F)C(F)(F)C(F)(F)C(F)(F)C(F)(F)C(F)(F)C(F)(F)F [PFOS]
LEL (rabbit [25]; [42]): 3.75 mg/kg/day
LOAEL (rabbit [25]; [42]): > 3.75 mg/kg/day
NEL (rabbit [25]; [42]): 1 mg/kg/day
NOAEL (rabbit [25]; [42]): ≥ 3.75 mg/kg/day
LOAEL (rabbit [25]; [43]): > 2.5 mg/kg/day
NEL (rabbit [25]; [43]): 0.1 mg/kg/day
NOAEL (rabbit [25]; [43]): ≥ 2.5 mg/kg/day
LEL (rabbit [25]; group: maternal, systemic / in life observation / body weight / body weight gain): 1 mg/kg/day
